Values quoted from earlier work, collected in US5385842A, “Anthraquinones as inhibitors of sulfide production from sulfate-reducing bacteria” (E. I. Du Pont de Nemours and Company, priority 1993, dated 1995).

Assays:
[1] = test system: Bacillus, Nocardia, Streptomyces, Proteus; details: background art; cited from earlier work
[2] = test system: E. coli, Pseudomonas, Salmonella or Sarcina; details: background art; cited from earlier work

## O=C1c2cc(O)cc(O)c2C(=O)c2c(O)ccc(O)c21 [1,4,6,8-tetrahydroxyanthraquinone]
[1]
  antibacterial activity (in words): inhibited 4 species of Bacillus, one strain of Nocardia, one strain (out of four tested) of Streptomyces and one of the Gram negative Proteus
[2]
  antibacterial activity (in words): did not affect any species of E. coli, Pseudomonas, Salmonella or Sarcina
